In patent US20170190744A1 (Vicuron Pharmaceuticals, Inc., priority 2015, published 2017):
Values joined by “and” are separate entries in the source; they are usually repeats but may differ in a detail not shown here. Equal values may be shown once.

Assays:
[1] = Pharmacokinetics and renal excretion in healthy subjects; format: in vivo, human; conditions: single 1000 mg IV
Protocol: Blood samples were drawn into heparinized tubes and centrifuged. Plasma was separated and stored frozen at −20° C. until time of assay. Plasma and urine samples were assayed for dalbavancin using validated LC/MS/MS methods. […] The peak concentration (Cmax) values were obtained directly from the observed data. The area under the plasma concentration-time curve (AUC) was calculated using the linear trapezoidal rule. Clearance (CL) was computed as dose/AUC. The elimination half life (t1/2) was estimated by linear regression of the log-linear portion of the log concentration versus time curve. Estimates of the volume of distribution (VZ) was calculated using the regression parameters, while the volume of distribution at steady state (Vss) was calculated from the area under the first moment curve (AUMC) multiplied by the dose and divided by AUC. The cumulative amount of dalbavancin excreted in urine was determined as the integrand of the urine excretion rate (AURC). CLR, or renal clearance, was calculated as the ratio: CLR=AURC/AUC.

[2] = both, human, in vivo
Protocol: Male and female subjects between ages 18 and 80 were eligible for enrollment. Subjects had to be within −10% to +50% of ideal body weight for their sex, height, and body frame.
The peak concentrations (Cmax) were obtained directly from the observed data. The area under the plasma concentration-time curve (AUC) were calculated using the linear trapezoidal rule.

[3] = system: skin and soft tissue infections (SSTI); assay: Phase II trial in deep skin and soft tissue infections: clinical response; format: in vivo, human; conditions: for clinical success rate at FU: clinically-evaluable population; for clinical success rate, deep or complicated SSTI at baseline: exploratory subanalysis
Protocol: This randomized, controlled study evaluated the safety and efficacy of two dose regimens of dalbavancin.
There were 62 patients randomized into the study; all received at least one dose of study medication. Four study populations were evaluated for safety and efficacy and were defined as follows: The intent-to-treat (ITT) population included all patients who received at least one dose of study drug (all randomized study subjects).
(§1) The effectiveness of the three treatment regimens was determined by assessing the patients' clinical response and the documented or presumed microbiological responses. The primary efficacy endpoint was clinical response at the follow-up visit for the clinically evaluable population. Clinical response, for both EOT and FU visits, was categorized as success (cure or improvement) or failure (including indeterminate results). Patients classified as successes must not have received additional systemic antibacterial treatment for their infection. Failure was defined as persistence of one or more local or systemic signs and symptoms of SSTI such that treatment with new or additional systemic antibacterial agents was required for the SSTI.

S. aureus [4] = assay: MIC of study organisms (NCCLS microdilution); format: cell-based
[5] = system: methicillin-resistant S. aureus (MRSA); assay: Phase II SSTI trial: response in patients with MRSA (MITT); format: in vivo, human; conditions: MITT population
Protocol: as §1
(§2) Microbiological outcome, a secondary efficacy variable, was assessed in the subpopulation of patients who had microbiologically documented SSTI (i.e., at least one identified baseline pathogen). A microbiologic response was assessed for each Gram-positive pathogen identified at baseline (i.e., eradication, presumed eradication, persistence, presumed persistence). For patients for whom follow-up cultures were not performed, the microbiologic responses for baseline pathogens were presumed on the basis of the clinical response. Microbiologic response by patient at the EOT and FU visits was graded as success (i.e., all Gram-positive organisms eradicated or presumed eradicated) or failure (i.e., at least one Gram-positive organism persisted or presumed to have persisted, multiple pathogens with partial eradication). At both the EOT and FU visits, colonization and superinfection were assessed. At the FU visit, a patient's bacteriological response could also include recurrence.

P450 = P450 induction after administration to rats; format: in vivo
human hepatic microsomes = format: in vitro ADME
[6] = in vivo
Protocol: Safety was evaluated by the collection and analysis of data on adverse events (AEs), clinical laboratory tests, physical examinations, vital signs, and ECGs.

S. aureus [7] = assay: Phase II SSTI trial: microbiologic response, S. aureus; format: in vivo, human
Protocol: as §2

[8] = Pharmacokinetics in hepatic impairment (VER001-12); format: in vivo, human; conditions: 1000 mg Day 1 and 500 mg Day 8, Mean (±SD)
Source text: The study enrolled otherwise healthy subjects with mild, moderate, or severe hepatic impairment (Child-Pugh scores 5 to 6, 7 to 9, and 10 to 15, respectively) and matched control subjects with normal hepatic function.

## CN[C@H]1C(=O)N[C@@H]2Cc3ccc(cc3)Oc3cc4cc(c3O[C@@H]3O[C@H](C(=O)O)[C@@H](O)[C@H](O)[C@H]3NC(=O)CCCCCCCCC(C)C)Oc3ccc(cc3Cl)[C@@H](O)[C@@H]3NC(=O)[C@H](NC(=O)[C@@H]4NC(=O)[C@@H](NC2=O)c2cc(cc(O)c2Cl)Oc2cc1ccc2O)c1ccc(O)c(c1)-c1c(O[C@H]2O[C@H](CO)[C@@H](O)[C@H](O)[C@@H]2O)cc(O)cc1[C@@H](C(=O)NCCCN(C)C)NC3=O [Dalbavancin]
[1]
  t1/2: 220 to 288 h
[2]; 500 mg
  AUC: 24376 ± 6615 µg·h/mL
[2]; 1000 mg
  AUC14: ~22000′ mg · h/L
  AUC42: 23137 ± 3326 µg·h/mL
[3]; single-dose dalbavancin (1100 mg IV day 1)
  clinical success rate at FU: 61.5%
[3]; two-dose dalbavancin (1 g IV day 1, 500 mg IV day 8)
  clinical success rate at FU: 94.1% and 94%
[3]; single-dose dalbavancin
  clinical success rate, deep or complicated SSTI at baseline: 58.3%
[3]; two-dose dalbavancin
  clinical success rate, deep or complicated SSTI at baseline: 93.8%
S. aureus [4]; S. aureus, MBC higher than MIC
  MBC relative to MIC: 2 to 4 fold
S. aureus [4]; SA25923
  MBC: 0.50 µg/mL
[5]; single-dose dalbavancin
  clinical success rate at FU in patients with MRSA: 50%
  rate of eradication for MRSA: 50%
[5]; two-dose dalbavancin
  clinical success rate at FU in patients with MRSA: 80%
  rate of eradication for MRSA: 80%
P450
  P450 induction: did not induce any P450 activity
Human hepatic microsomes
  effect on metabolism of marker substrates: did not affect the metabolism of marker substrates
[6]; human
  average difference of effect on QTc values versus vancomycin group: 7 ms
[6]
  impact on heart rate, atrioventricular conduction or intra-ventricular conduction: did not exhibit any impact
S. aureus [7]; single-dose dalbavancin
  S. aureus eradication rate at FU: 50%
S. aureus [7]; two-dose dalbavancin
  S. aureus eradication rate at FU: 90%
[8]; Mild Hepatic Impairment
  t1/2: 323 (27) h
[8]; Moderate Hepatic Impairment
  t1/2: 320 (24) h
[8]; Normal Hepatic Function
  t1/2: 321 (24) h
[8]; Severe Hepatic Impairment
  t1/2: 322 (68) h
